Experimental data from ChEMBL document CHEMBL4152339, “Design and synthesis of novel 1H-tetrazol-5-amine based potent antimicrobial agents: DNA topoisomerase IV and gyrase affinity evaluation supported by molecular docking studies” (Eur J Med Chem, 2018).
Values after ≈ are worked out from the molar mass of the structure shown.

What was measured:
[1] = Selectivity index, ratio of IC50 for human HaCaT cells to MIC for Bordetella bronchiseptica ATCC 4617; format: toxicity; conditions: read-out: Selectivity Index
[2] = test system: A549; experiment: Cytotoxicity activity against human A549 cells assessed as reduction in cell viability after 72 hrs by MTT assay; format: cell-based; conditions: A549, 72 h
[3] = Selectivity index, ratio of IC50 for human HaCaT cells to MIC for Staphylococcus aureus NCTC 4163; format: toxicity; conditions: read-out: Selectivity Index
[4] = test system: Bacillus spizizenii; experiment: Antibacterial activity against Bacillus subtilis ATCC 6633 after 18 hrs by CLSI disc diffusion method; format: functional; conditions: ATCC 6633, 18 h
[5] = Selectivity index, ratio of IC50 for human HaCaT cells to MIC for Enterococcus hirae ATCC 10541; format: toxicity; conditions: read-out: Selectivity Index
[6] = test system: Micrococcus luteus; experiment: Antibacterial activity against Micrococcus luteus ATCC 10240 after 18 hrs by CLSI disc diffusion method; format: functional; conditions: ATCC 10240, 18 h
[7] = test system: Staphylococcus epidermidis; experiment: Antibacterial activity against Staphylococcus epidermidis ATCC 35984 after 18 hrs by CLSI […] method; format: functional; conditions: ATCC 35984, 18 h
[8] = test system: Bordetella bronchiseptica; experiment: Antibacterial activity against Bordetella bronchiseptica ATCC 4617 after 18 hrs by CLSI disc diffusion method; format: functional; conditions: ATCC 4617, 18 h
[9] = test system: Pseudomonas aeruginosa; experiment: Antibacterial activity against Pseudomonas aeruginosa ATCC 27853 after 18 hrs by CLSI disc diffusion method; format: functional; conditions: ATCC 27853, 18 h
[10] = test system: Micrococcus luteus; experiment: Antibacterial activity against Micrococcus luteus ATCC 9341 after 18 hrs by CLSI disc diffusion method; format: functional; conditions: ATCC 9341, 18 h
[11] = Selectivity index, ratio of IC50 for human HaCaT cells to MIC for Proteus vulgaris NCTC 4635; format: toxicity; conditions: read-out: Selectivity Index
[12] = test system: Proteus vulgaris; experiment: Antibacterial activity against Proteus vulgaris NCTC 4635 after 18 hrs by CLSI disc diffusion method; format: functional; conditions: NCTC 4635, 18 h
[13] = test system: Enterococcus faecalis; experiment: Antibacterial activity against Enterococcus faecalis ATCC 29212 after 18 hrs by CLSI disc diffusion method; format: functional; conditions: ATCC 29212, 18 h
[14] = Selectivity index, ratio of IC50 for human HaCaT cells to MIC for Micrococcus luteus ATCC 10240; format: toxicity; conditions: read-out: Selectivity Index
[15] = test system: Bacillus cereus; experiment: Antibacterial activity against Bacillus cereus ATCC 11778 after 18 hrs by CLSI disc diffusion method; format: functional; conditions: ATCC 11778, 18 h
[16] = Selectivity index, ratio of IC50 for human HaCaT cells to MIC for Escherichia coli ATCC 10538; format: toxicity; conditions: read-out: Selectivity Index
[17] = Selectivity index, ratio of IC50 for human HaCaT cells to MIC for Bacillus subtilis ATCC 6633; format: toxicity; conditions: read-out: Selectivity Index
[18] = test system: Staphylococcus epidermidis; experiment: Antibacterial activity against Staphylococcus epidermidis ATCC 12228 after 18 hrs by CLSI disc diffusion method; format: functional; conditions: ATCC 12228, 18 h
[19] = test system: Escherichia coli; experiment: Antibacterial activity against Escherichia coli ATCC 10538 after 18 hrs by CLSI disc diffusion method; format: functional; conditions: ATCC 10538, 18 h
[20] = test system: Pseudomonas aeruginosa; experiment: Antibacterial activity against Pseudomonas aeruginosa ATCC 15442 after 18 hrs by CLSI disc diffusion method; format: functional; conditions: ATCC 15442, 18 h
[21] = test system: Staphylococcus aureus; experiment: Antibacterial activity against Staphylococcus aureus ATCC 6538 after 18 hrs by CLSI disc diffusion method; format: functional; conditions: ATCC 6538, 18 h
[22] = test system: HaCaT; experiment: Cytotoxicity activity against human HaCaT cells assessed as reduction in cell viability after 72 hrs by MTT assay; format: cell-based
[23] = test system: Enterococcus hirae; experiment: Antibacterial activity against Enterococcus hirae ATCC 10541 after 18 hrs by CLSI disc diffusion method; format: functional; conditions: ATCC 10541, 18 h
[24] = test system: Staphylococcus aureus; experiment: Antibacterial activity against Staphylococcus aureus ATCC 25923 after 18 hrs by CLSI disc diffusion method; format: functional; conditions: ATCC 25923, 18 h
[25] = test system: Staphylococcus aureus; experiment: Antibacterial activity against Staphylococcus aureus NCTC 4163 after 18 hrs by CLSI disc diffusion method; format: functional; conditions: NCTC 4163, 18 h

MIC [4]: 57 µM (≈ 16 µg/mL) | MIC [6]: 57 µM (≈ 16 µg/mL) | MIC [7]: 14 µM (≈ 3.93 µg/mL) | MIC [8]: > 914 µM | MIC [9]: > 914 µM | MIC [10]: 57 µM (≈ 16 µg/mL) | MIC [12]: 57 µM (≈ 16 µg/mL) | MIC [13]: 114 µM (≈ 32 µg/mL) | MIC [15]: 29 µM (≈ 8.14 µg/mL) | MIC [18]: 29 µM (≈ 8.14 µg/mL) | MIC [19]: 57 µM (≈ 16 µg/mL) | MIC [20]: 914 µM (≈ 257 µg/mL) | MIC [21]: 14 µM (≈ 3.93 µg/mL) | MIC [23]: 29 µM (≈ 8.14 µg/mL) | MIC [24]: 29 µM (≈ 8.14 µg/mL) | MIC [25]: 14 µM (≈ 3.93 µg/mL)
Structure (SMILES): Fc1ccc(-n2nnnc2Nn2cnnc2)cc1Cl
selectivity ratio [1]: 0.07 | IC50 [2]: 60 µM | selectivity ratio [3]: 4.42 | selectivity ratio [5]: 2.13 | selectivity ratio [11]: 1.08 | selectivity ratio [14]: 1.08 | selectivity ratio [16]: 1.08 | selectivity ratio [17]: 1.08 | IC50 [22]: 62 µM
